Measurements reported in ChEMBL document CHEMBL5614457, “New Directions in Antibacterial, Anticancer, and Gene Editing Therapies” (ACS Med Chem Lett, 2024).

Target: Protein cereblon/B-cell lymphoma 6 protein (Homo sapiens) (UniProt Q96SW2+P41182)
Test: PROTAC activity at CRBN/N-terminal-HibiT tagged BCL6 in human HT-1080 cells transfected with pLV-UBC-N-HiBiT- BCL6-PGK-puro assessed as degradation of protein by measuring ratio of trough concentration of protein in cell compared to the concentration of protein before the cell contact with compound (Ymin) incubated for 5 hrs by luminescence based NANO-Glo HIBiT lytic detection assay

Activity | SMILES
< 30% | Cn1nc(C2CCC(=O)NC2=O)c2ccc(N3CCC(CN4CCN(c5cc(Nc6ccc7c(c6)c6c(c(=O)n7C)OCC(F)(F)[C@H](C7CC7)N6)c(Cl)cn5)CC4)CC3)cc21 (some centres not stated)
< 30% | Cn1nc(C2CCC(=O)NC2=O)c2cccc(C3CCN(CC4CCN(c5ncc(Cl)c(Nc6ccc7c(c6)c6c(c(=O)n7C)OCC(F)(F)[C@H](C7CC7)N6)n5)CC4)CC3)c21 (some centres not stated)
< 30% | Cn1nc(C2CCC(=O)NC2=O)c2cccc(N3CCC(CN4CCN(c5cc(Nc6ccc7c(c6)c6c(c(=O)n7C)OCC(F)(F)[C@H](C7CC7)N6)c(Cl)cn5)CC4)CC3)c21 (some centres not stated)
< 30% | Cn1nc(C2CCC(=O)NC2=O)c2cccc(N3CCN(CC4CCN(c5ncc(Cl)c(Nc6ccc7c(c6)c6c(c(=O)n7C)OCC(F)(F)[C@H](C7CC7)N6)n5)CC4)CC3)c21 (some centres not stated)
< 30% | Cn1c(=O)c2c(c3cc(Nc4nc(N5CCN(CC6CCN(c7cccc8c7C(=O)N(C7CCC(=O)NC7=O)C8=O)CC6)CC5)ncc4Cl)ccc31)N[C@@H](C1CC1)C(F)(F)CO2 (some centres not stated)
< 30% | Cn1nc(C2CCC(=O)NC2=O)c2cccc(N3CCC(OC4CCN(c5ncc(Cl)c(Nc6ccc7c(c6)c6c(c(=O)n7C)OCC(F)(F)[C@H](C7CC7)N6)n5)CC4)CC3)c21 (some centres not stated)
< 30% | Cn1nc(C2CCC(=O)NC2=O)c2cccc(N3CCC(CN4CCN(c5ncc(Cl)c(Nc6ccc7c(c6)c6c(c(=O)n7C)OCC(F)(F)[C@H](C7CC7)N6)n5)CC4)CC3)c21 (some centres not stated)
< 30% | C[C@@H](C1CCN(c2cccc3c(C4CCC(=O)NC4=O)nn(C)c23)CC1)N1CCN(c2ncc(Cl)c(Nc3ccc4c(c3)c3c(c(=O)n4C)OCC(F)(F)[C@H](C4CC4)N3)n2)CC1 (some centres not stated)
< 30% | Cn1nc(C2CCC(=O)NC2=O)c2cccc(N3CCC(CN4CCN(c5ncc(Br)c(Nc6ccc7c(c6)c6c(c(=O)n7C)OCC(F)(F)[C@H](C7CC7)N6)n5)CC4)CC3)c21 (some centres not stated)
< 30% | Cn1nc(C2CCC(=O)NC2=O)c2cccc(N3CCC(CN4CCN(c5ncc(F)c(Nc6ccc7c(c6)c6c(c(=O)n7C)OCC(F)(F)[C@H](C7CC7)N6)n5)CC4)CC3)c21 (some centres not stated)
30% | Cn1nc(C2CCC(=O)NC2=O)c2ccc(N3CCC(CN4CCN(c5ncc(F)c(Nc6ccc7c(c6)c6c(c(=O)n7C)OCC(F)(F)[C@H](C7CC7)N6)n5)CC4)CC3)cc21 (some centres not stated)
< 30% | Cn1nc(C2CCC(=O)NC2=O)c2cccc(C3CCN(CC4CCN(c5ncc(F)c(Nc6ccc7c(c6)c6c(c(=O)n7C)OCC(F)(F)[C@H](C7CC7)N6)n5)CC4)CC3)c21 (some centres not stated)
